Experimental data as given in patent publication US20200061092A1, “METHODS AND COMPOSITIONS FOR TREATING DISORDERS ASSOCIATED WITH MUSCLE WEAKNESS” (priority 2018, published 2020).
“And” between values parts separate entries of the source, which are not always exact repeats. Equal entries are not always repeated.

Legend:
FKRP P448L mutant mice [1] = assay: Histopathological and morphometric analysis (H&E, Masson's Trichrome) of muscles of P448L mice; type: in vivo, mouse
Description: Ribitol was purchased from Sigma (A5502 Adonitol, ≥98%, Sigma, St. Louis) and dissolved in drinking water to the final concentration of 5% or 10%. […] mice aged at 4 weeks were treated with 5% ribitol drinking water for 1 month and […] mice aged at 7 weeks were treated with 5% ribitol drinking water for 3 months and 6 months. All the mice were randomly assigned to either treatment or control groups. And a minimum number of 4 mice were used for each group. No animal was excluded. […] female breeders were given 10% ribitol in drinking water during pregnancy, and pups continued to be treated with 10% ribitol in drinking water until they were euthanized at 19 weeks of age. Untreated age-matched […] and wild-type C57BL/6 mice were used as controls. The animals were terminated at the end of each treatment time point and tissues including heart, diaphragm, TA, quadriceps, liver, spleen and kidney were collected for analyses. Frozen tissues were processed for hematoxylin and eosin (H&E) and Masson's Trichrome staining following standard procedures. Muscle cross-sectional fiber equivalent diameter was determined from tibialis anterior and quadriceps stained with H&E using MetaMorph v7.7 Software (Molecular Devices). Percentage of centrally nucleated myofibers were manually quantified from the same tissue sections stained with H&E. Fibrotic area represented by blue staining in the Masson's Trichrome stained sections was quantified from heart, diaphragm, tibialis anterior and quadriceps using ImageJ software. For all the morphometric analyses, a total of 300 to 400 fibers from two representative 20× magnification images per each muscle per animal were used.

FKRP P448L mutant mice [2] = assay: Whole body plethysmography (respiratory function) in P448L mice; type: in vivo, mouse
Description: Respiratory functional analysis in conscious, freely moving 18 and 31 weeks old mice were measured using a whole-body plethysmography technique. The plethysmograph apparatus (Emka Technologies, Falls Church, Va.) was connected to a ventilation pump for the purpose of maintaining a constant air flow, a differential pressure transducer, a usbAMP signal amplifier, and a computer running EMKA iox2 software with the respiratory flow analyzer module, which was used to detect pressure changes due to breathing and recording the transducer signal. An initial amount of 20 mL of air was injected and withdrawn via a 20 mL syringe into the chamber for the purpose of calibration. Mice were placed inside the “free moving” plethysmograph chamber and allowed to acclimate for 5 min in order to minimize any effects of stress related changes in ventilation. Resting ventilation was measured for a duration of 15 min after the acclimation period. Body temperatures of all mice were assumed to be 37° C. and to remain constant during the ventilation protocol.

FKRP P448L mutant mice [3] = assay: Ribitol toxicity evaluation: body weight, histology of liver, kidney and spleen, serum biochemical markers; type: in vivo, mouse
Description: All animal studies were approved by the Institutional Animal Care and Use Committee (IACUC) of Carolinas Medical Center. All mice were housed in the vivarium of Carolinas Medical Center following animal care guidelines of the institute. Animals were ear tagged prior to group assignment. Food and water were available ad libitum during all phase of the study. Body weight was measured from 6 weeks to 19 weeks of age.
Ribitol was purchased from Sigma (A5502 Adonitol, ≥98%, Sigma, St. Louis) and dissolved in drinking water to the final concentration of 5% or 10%. P448L mice aged at 4 weeks were treated with 5% ribitol drinking water for 1 month and P448L mice aged at 7 weeks were treated with 5% ribitol drinking water for 3 months and 6 months. All the mice were randomly assigned to either treatment or control groups. And a minimum number of 4 mice were used for each group. No animal was excluded. P448L female breeders were given 10% ribitol in drinking water during pregnancy, and pups continued to be treated with 10% ribitol in drinking water until they were euthanized at 19 weeks of age. Untreated age-matched P448L and wild-type C57BL/6 mice were used as controls. The animals were terminated at the end of each treatment time point and tissues including heart, diaphragm, TA, quadriceps, liver, spleen and kidney were collected for analyses.
Frozen tissues were processed for hematoxylin and eosin (H&E) and Masson's Trichrome staining following standard procedures. Muscle cross-sectional fiber equivalent diameter was determined from tibialis anterior and quadriceps stained with H&E using MetaMorph v7.7 Software (Molecular Devices). Percentage of centrally nucleated myofibers were manually quantified from the same tissue sections stained with H&E. Fibrotic area represented by blue staining in the Masson's Trichrome stained sections was quantified from heart, diaphragm, tibialis anterior and quadriceps using ImageJ software. For all the morphometric analyses, a total of 300 to 400 fibers from two representative 20× magnification images per each muscle per animal were used.

[4] = Serum ribitol measurement by LC/MS-MS; type: in vivo
Excerpt: Ribitol was purchased from Sigma (A5502). Sera were collected, and blinded samples were placed in individual wells of a 96-well plate and analyzed by LC/MS-MS. An Applied Biosystems Sciex 4000 (Applied Biosystems; Foster City, Calif.) equipped with a Shimadzu HPLC (Shimadzu Scientific Instruments, Inc.: Columbia, Md.) and Leap auto-sampler (LEAP Technologies; Carrboro, N.C.) were used to detect ribitol from samples and synthetic compound. […] MeOH:ACN (1:1). The following gradient was used: 0-12 min, 5% buffer B; 13-14 min, 95% buffer B, 15-17 min, 5% buffer B. Under these conditions, ribitol eluted at 8.3 min. The metabolite was analyzed using electrospray ionization mass spectrometry operated in positive ion mode, ESI+. Compound concentrations in tissue samples were determined based on standard curves prepared by serial dilutions (200-0.01 μM) of the compound in MeOH:ACN (1:1).

[5] = tested on: muscular dystrophy caused by FKRP mutations; assay: Ribitol/ribose supplementation in animal model of FKRP mutation muscular dystrophy; type: in vivo; conditions: supplement via drinking water
[6] = 10% ribitol from pregnancy to 19 weeks
[7] = 10% ribitol from pregnancy, 18 weeks of age
[8] = 5% ribitol in drinking water (n = 4)

OC[C@@H](O)[C@@H](O)[C@@H](O)CO [ribitol]
Fibrotic area in cardiac muscle vs untreated (FKRP P448L mutant mice [1]; 5% ribitol, 3 and 6 months): significant reduction
Number of fibers with small diameters (TA and quadriceps) (FKRP P448L mutant mice [1]; 5% ribitol, 3 and 6 months): statistically significant decrease
Percentage of CNF (TA and quadriceps) vs untreated (FKRP P448L mutant mice [1]; 5% ribitol, 3 and 6 months): No significant difference
Areas of fibrotic tissue (Masson's Trichrome) vs untreated (FKRP P448L mutant mice [1]; 5% ribitol, 3 and 6 months, limb muscles): significantly decreased
Fibrotic tissue in diaphragm (% of tissue cross-section area) (FKRP P448L mutant mice [1]; 5% ribitol, 3 month treatment): 11%
Fibrotic tissue in diaphragm (% of tissue cross-section area) (FKRP P448L mutant mice [1]; 5% ribitol, 6 month treatment): 18%
Centrally nucleated fibers (CNF) in TA vs untreated (FKRP P448L mutant mice [1]; [6]): significantly fewer
Fibrosis in cardiac muscle and diaphragm (FKRP P448L mutant mice [1]; [6]): reduction in fibrosis was significant in cardiac muscle, and most prominent in the diaphragm
Tidal volume (TV), expiratory volume (EV), minute volume (MV) vs untreated (FKRP P448L mutant mice [2]; 5% ribitol, 3 and 6 months): trend of improvement
Improvement in EV and MV (FKRP P448L mutant mice [2]; 5% ribitol, 6 months): statistically significant
Peak inspiratory flow (PIF) and peak expiratory flow (PEF) (FKRP P448L mutant mice [2]; 5% ribitol, 6 months): Improvement was also observed
Expired volume (EV), relaxation time (RT), enhanced pause (Penh) (FKRP P448L mutant mice [2]; [7]): improvement
Minute volume (MV) and end-expiratory pause (EEP) vs untreated (FKRP P448L mutant mice [2]; [7]): reaching significant difference
Histology of liver, kidney and spleen (H&E) (FKRP P448L mutant mice [3]; 5% ribitol, 3 or 6 months): normal structure without degeneration and inflammation
Serum markers of liver and kidney function (ALP, ALT, t-Bil, c-Bil, unc-Bil, BUN, Crea), treated vs untreated (FKRP P448L mutant mice [3]; 5% ribitol, 6 months): No statistical significance
Serum triglycerides (TRG) and glucose (GLU), treated vs untreated (FKRP P448L mutant mice [3]; 5% ribitol, 6 months): similar
Body weight vs age-matched untreated P448L (FKRP P448L mutant mice [3]; 10% ribitol from embryonic stage or 5% ribitol from 7 weeks of age, all time points): No significant difference
Effect on pregnancy, embryo development, body weight and overall behavior (FKRP P448L mutant mice [3]; oral ribitol from pregnancy to adult): does not affect
Mean serum ribitol [4, 8]: 2355 ug ug/L
Serum ribitol, individual animals [4, 8]: 924 ng/ml and 4221 ng/ml and 3184 ng/ml and 1092, ng/ml
Therapeutic serum concentration in excess of normal ribitol serum levels ([4]; about 10 mg/L vs normal serum level): roughly 1000 ×
Tolerability at therapeutic serum concentration ([4]; serum about 10 mg/L): no observable side effects
Disease pathology of muscular dystrophy caused by FKRP mutations [5]: diminish disease pathology
